US4877779A, “2-aminomethylalkynylalkyl-1,3-dithiane derivatives” (priority 1988, dated 1989)
Counter-ions that a name gives are not always drawn.

The compounds below were run against T1, calcium channel (guinea-pig isolated ileal longitudinal smooth muscle) (Cavia porcellus, UniProt O35505) (assay: Calcium Channel Antagonist Activity in Guinea-Pig Isolated Ileal Smooth Muscle). Settings: Kb = concentration producing a two-fold dextral shift in the control CaCl2 concentration-response curve; KCl (80 mM) depolarized ileal smooth muscle; read-out: Calcium antagonist Kb.
T1 construct: The longitudinal smooth muscle is carefully separated from the underlying circular muscle layer; from tissue; host or cells: guinea-pig ileal longitudinal smooth muscle
Assay type: cell-based
Description: Calcium Channel Antagonist Activity in Guinea-Pig Isolated Ileal Smooth Muscle.
Male albino guinea-pigs are sacrificed by stunning and exsanguination. The abdominal cavity is opened and the small intestine is removed, with about 10 cm of the terminal ileum being discarded. The tissue is placed in a dish containing Tyrode's solution (composition, mM: […]; KCl 2.68; NaHCO3 11.90; NaH2 PO4 0.36; MgCl2 0.98; CaCl2 1.77; dextrose 5.55), and cut into three to four segments. A glass rod (6 mm diameter) is carefully inserted into the lumen of each segment, and excess connective tissue or fat is removed. The longitudinal smooth muscle is carefully separated from the underlying circular muscle layer by gently stroking a moist cotton swab on a tangent to shallow, longitudinal incisions made parallel to the mesenteric attachment. Using gentle traction, and taking care to keep the segment moist at all times, the preparation is stripped from the remaining length of the ileal segment (Paton & Zar, J. Physiol. 194, 13; 1968).
Each preparation is suspended in a 10 mL jacketed glass tissue bath containing Tyrode's solution maintained at 37° C. and gassed with 5% CO2 in O2. The preparation is attached by silk thread to a force-displacement transducer. […] The initial resting tension is adjusted to 0.5 g and the preparation equilibrated for 55 minutes prior to experimentation. At the end of this period, the bathing solution is replaced with Ca^2+ -free Tyrode's solution. This solution is prepared by omitting CaCl2. The preparation is washed four times in Ca^2+ -free Tyrode 's to remove any Ca^2+ remaining in the bath, and allowed to equilibrate for a further 20 minutes.
Concentration-response curves to CaCl2 are obtained using the following procedure. Preparations are exposed to a depolarizing concentration of KCl (80 mM) for 6 minutes. At the end of this period CaCl2 is added to the bath cumulatively in the concentration range 0.2-8.0 mM. Successive additions of each Ca^2+ concentration are carried out only when the previous response has reached a plateau. When the maximum response has been attained the bath is again washed (five times) with Ca^2+ -free buffer, and the preparation re-equilibrated for approximately 15 minutes. A second Ca^2+ concentration-response curve is then obtained in the same manner. This second curve serves as control for that tissue.
Further curves are obtained in the presence of increasing concentrations of the test drugs. Where appropriate, the test drug is added to the bath immediately following addition of KCl, and 6 minutes later the concentration-response curve to Ca^2+ is obtained. Each test preparation is exposed to three different concentrations of a test drug.
For each ileal preparation, the control EC50 for Ca^2+ (the concentration producing 50% of the maximum response) is determined from the control concentration-response curve. Calcium blocking activity is defined as a Kb value (the concentration producing a two-fold dextral shift in the control curve), calculated from EC50 ratios in the absence and presence of test drugs.

T1 sequence (O35505 whole entry): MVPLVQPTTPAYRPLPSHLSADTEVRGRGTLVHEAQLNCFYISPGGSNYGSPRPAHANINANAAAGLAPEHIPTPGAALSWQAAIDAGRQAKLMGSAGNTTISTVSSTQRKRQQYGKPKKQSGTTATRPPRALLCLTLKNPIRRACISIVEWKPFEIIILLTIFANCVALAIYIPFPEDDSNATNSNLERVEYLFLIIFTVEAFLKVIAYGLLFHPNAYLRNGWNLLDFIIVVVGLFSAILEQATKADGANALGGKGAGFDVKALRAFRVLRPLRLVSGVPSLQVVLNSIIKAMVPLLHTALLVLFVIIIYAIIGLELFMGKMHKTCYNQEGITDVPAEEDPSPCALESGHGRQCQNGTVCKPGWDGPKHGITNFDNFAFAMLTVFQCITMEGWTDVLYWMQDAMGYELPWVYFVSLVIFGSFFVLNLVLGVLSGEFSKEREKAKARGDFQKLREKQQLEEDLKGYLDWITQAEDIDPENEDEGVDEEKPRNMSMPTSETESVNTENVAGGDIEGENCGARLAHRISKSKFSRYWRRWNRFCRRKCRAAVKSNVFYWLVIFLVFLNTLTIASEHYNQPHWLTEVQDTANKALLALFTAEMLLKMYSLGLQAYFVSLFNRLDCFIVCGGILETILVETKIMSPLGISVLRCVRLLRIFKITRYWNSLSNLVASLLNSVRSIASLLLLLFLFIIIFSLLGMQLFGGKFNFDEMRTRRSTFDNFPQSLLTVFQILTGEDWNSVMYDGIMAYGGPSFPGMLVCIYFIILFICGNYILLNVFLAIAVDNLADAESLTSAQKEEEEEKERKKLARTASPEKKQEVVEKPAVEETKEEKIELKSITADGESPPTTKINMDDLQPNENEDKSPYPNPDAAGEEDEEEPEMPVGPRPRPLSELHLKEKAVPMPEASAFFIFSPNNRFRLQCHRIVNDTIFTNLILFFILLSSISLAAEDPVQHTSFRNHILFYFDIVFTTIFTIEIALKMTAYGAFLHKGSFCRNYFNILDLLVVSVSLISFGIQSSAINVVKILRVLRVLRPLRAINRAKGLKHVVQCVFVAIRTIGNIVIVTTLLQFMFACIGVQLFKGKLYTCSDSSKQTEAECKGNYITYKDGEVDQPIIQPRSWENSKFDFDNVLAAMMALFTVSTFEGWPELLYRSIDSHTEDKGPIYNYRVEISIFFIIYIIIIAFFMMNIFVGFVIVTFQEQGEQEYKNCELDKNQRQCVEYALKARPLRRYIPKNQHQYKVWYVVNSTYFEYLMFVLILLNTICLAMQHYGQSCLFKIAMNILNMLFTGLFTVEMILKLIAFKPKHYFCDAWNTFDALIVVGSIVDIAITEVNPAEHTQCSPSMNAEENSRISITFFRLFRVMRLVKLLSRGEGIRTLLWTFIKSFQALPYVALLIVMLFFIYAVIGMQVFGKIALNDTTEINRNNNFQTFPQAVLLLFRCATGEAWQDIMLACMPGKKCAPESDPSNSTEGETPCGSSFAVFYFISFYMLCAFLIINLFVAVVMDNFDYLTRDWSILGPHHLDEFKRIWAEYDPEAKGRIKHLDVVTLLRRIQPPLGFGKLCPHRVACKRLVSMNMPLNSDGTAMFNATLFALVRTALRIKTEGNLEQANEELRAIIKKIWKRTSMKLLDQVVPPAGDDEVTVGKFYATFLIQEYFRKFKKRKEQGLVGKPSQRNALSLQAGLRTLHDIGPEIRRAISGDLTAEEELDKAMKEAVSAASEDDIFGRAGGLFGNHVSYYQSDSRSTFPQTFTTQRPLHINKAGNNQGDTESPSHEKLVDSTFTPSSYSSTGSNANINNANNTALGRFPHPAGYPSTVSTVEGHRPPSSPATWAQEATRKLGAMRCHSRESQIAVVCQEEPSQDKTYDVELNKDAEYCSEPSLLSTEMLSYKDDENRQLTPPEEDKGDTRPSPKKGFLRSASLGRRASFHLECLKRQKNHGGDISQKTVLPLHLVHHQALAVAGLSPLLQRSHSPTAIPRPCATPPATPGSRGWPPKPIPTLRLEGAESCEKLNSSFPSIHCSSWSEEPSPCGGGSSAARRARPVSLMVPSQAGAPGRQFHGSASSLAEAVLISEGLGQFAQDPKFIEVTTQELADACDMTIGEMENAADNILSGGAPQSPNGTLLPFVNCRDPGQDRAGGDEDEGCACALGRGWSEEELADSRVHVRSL

First: CCN(CC)CC#CCCC1(C2(O)CCOc3ccccc32)SCCCS1 (centres unmarked) [2(5-Diethylaminopent-3-ynyl)-2-(4-hydroxy-4H-chromanyl)-1,3-dithiane]
Second: CCN(CC)CC#CCCC1(C2(O)CCCc3ccccc32)SCCCS1 (centres unmarked) [2-(5-Diethylaminopent-3-ynyl)-2-(1-hydroxy-1,2,3,4-tetrahydro-1-naphthyl)-1,3-dithiane Hemioxalate]
The Kb of the first is 2.3-fold higher: 1940 ± 210 nM for the first, 830 ± 20 nM for the second.

Compared with CCN(CC)CC#CCCC1(C2(O)c3ccccc3-c3ccccc32)SCCCS1 [2(5-Diethylaminopent-3-ynyl)-2-(9-hydroxy-9H-fluoren-9-yl)-1,3-dithiane], CN(C)CC#CCCC1(C2(O)c3ccccc3-c3ccccc32)SCCCS1 [2-(5-Dimethylaminopent-3-ynyl)-2-(9-hydroxy-9H-fluoren-9-yl)-1,3-dithiane] is 3.6-fold higher in Kb: 500 ± 100 nM for the first, 1810 ± 390 nM for the second.

Compared with CCCN(CC#CCC1(c2ccccc2)SCCCS1)CCC [2-(4-Dipropylaminobut-2-ynyl)-2-phenyl-1,3-dithiane, Oxalate], CCN(CC)CC#CCC1(c2ccccc2)SCCCS1 [2-(4-diethylaminobut-2-ynyl)-2-phenyl-1,3-dithiane oxalate] is 4.2-fold higher in Kb: 1010 ± 150 nM for the first, 4270 ± 430 nM for the second.

CCN(CC)CC#CCCC1SCCCS1 [2-(5-Diethylaminopent-3-ynyl)-1,3-dithiane Oxalate] and CN(C)CC#CCCC1SCCCS1 [2-(5-Dimethylaminopent-3-ynyl)-1,3-dithiane Oxalate] cannot be ordered by Kb: over 10000 nM for the first, over 10000 nM for the second.

First: CCN(CC)CC#CCCC1(C2(O)c3ccccc3Sc3ccc(Cl)cc32)SCCCS1 (centres unmarked) [2-(5-Diethylaminopent-3-ynyl)-2-(2-chloro-9-hydroxy-9H-thioxanthen-9-yl)-1,3-dithiane Oxalate]
Second: CN(C)CC#CCCC1(C2(O)c3ccccc3Sc3ccc(Cl)cc32)SCCCS1 (centres unmarked) [2-(5-Dimethylaminopent-3-ynyl)-2-(2-chloro-9-hydroxy-9H-thioxanthen-9-yl)-1,3-dithiane]
The Kb of the first is 7.1-fold lower: 330 ± 50 nM for the first, 2330 ± 180 nM for the second.

Going from CCN(CC)CC#CCCC1(C2(O)c3ccccc3C=Cc3ccccc32)SCCCS1 [2-(5-Diethylaminopent-3-ynyl)-2-(5-hydroxy-5H-dibenzo[a,d]cyclohepten-5-yl)-1,3-dithiane Oxalate] to CCN(CC)CC#CCCC1(C2(O)c3ccccc3Sc3ccccc32)SCCCS1 [2-(5-Diethylaminopent-3-ynyl)-2-(9-hydroxy-9H-thioxanthen-9-yl)-1,3-dithiane Oxalate], the Kb falls from 300 nM to 125 ± 18 nM (2.4-fold).

Going from CCN(CC)CC#CCCC1(C(O)(c2ccccc2)C2CCCCC2)SCCCS1 (stereo not drawn) [2-(5-Diethylaminopent-3-ynyl)-2-(α-cyclohexyl-α-hydroxybenzyl)-1,3-dithiane Hemioxalate] to CCN(CC)CC#CCCC1(C(O)(c2ccccc2)C2CCCC2)SCCCS1 (stereo not drawn) [2-(5-Diethylaminopent-3-ynyl)-2-(α-cyclopentyl-α-hydroxybenzyl-1,3-dithiane Oxalate], the Kb falls from 1140 ± 21 nM to 500 nM (2.3-fold).

Going from CCN(CC)CC#CCCC1(C(C)(O)c2ccccc2)SCCCS1 (stereo not drawn) [2-(5-Diethylaminopent-3-ynyl)-2-(α-hydroxy-α-methylbenzyl)-1,3-dithiane] to CCN(CC)CC#CCCC1(C(O)(c2ccccc2)c2ccccc2)SCCCS1 [2-(5-Diethylaminopent-3-ynyl)-2-(α-hydroxy-α-phenylbenzyl)-1,3-dithiane Oxalate], the Kb falls from 2510 ± 400 nM to 980 ± 160 nM (2.6-fold).

First: CCN(CC)CC#CCCC1(C(c2ccccc2)c2ccccc2)SCCCS1 [2-(5-Diethylaminopent-3-ynyl)-2-benzhydryl-1,3-dithiane Oxalate Hydrate]
Second: CCN(CC)CC#CCCC1(c2ccccc2)SCCCS1 [2-(5-Diethylaminopent-3-ynyl)-2-phenyl-1,3-dithiane Oxalate]
The Kb of the first is 1.8-fold lower: 500 nM for the first, 900 ± 300 nM for the second.

Going from CCN(CC)CC#CCCC1(Cc2ccccc2)SCCCS1 [2-(5-Diethylaminopent-3-ynyl)-2-benzyl-1,3-dithiane Oxalate] to CN(C)CC#CCCC1(C2(O)c3ccccc3Sc3ccccc32)SCCCS1 [2-(5-Dimethylaminopent-3-ynyl)-2-(9-hydroxy-9H-thioxanthen-9-yl)-1,3-dithiane], the Kb falls from 1960 ± 400 nM to 680 ± 130 nM (2.9-fold).
